Assay results reported in patent US12473298B2, “Amide compounds, preparation method therefor, and use thereof in the medical field” (Shanghai Synergy Pharmaceutical Sciences Co., Ltd., priority 2019, dated 2025).
pIC50: −log10 of the molar value. Read-outs that look alike come from different tables or passages of the source.

Experiments:
Mutant type EZH2(Y641F) = Mutant type EZH2(Y641F) (Homo sapiens (Human), UniProt Q15910, Y641F); assay: AlphaLISA, mutant type PRC2 complex EZH2(Y641F); type: biochemical; conditions: read-out: Mutant type EZH2(Y641F) IC50 Nanomoles per Liter
Sequence of Mutant type EZH2(Y641F) (Q15910 whole entry Y641F): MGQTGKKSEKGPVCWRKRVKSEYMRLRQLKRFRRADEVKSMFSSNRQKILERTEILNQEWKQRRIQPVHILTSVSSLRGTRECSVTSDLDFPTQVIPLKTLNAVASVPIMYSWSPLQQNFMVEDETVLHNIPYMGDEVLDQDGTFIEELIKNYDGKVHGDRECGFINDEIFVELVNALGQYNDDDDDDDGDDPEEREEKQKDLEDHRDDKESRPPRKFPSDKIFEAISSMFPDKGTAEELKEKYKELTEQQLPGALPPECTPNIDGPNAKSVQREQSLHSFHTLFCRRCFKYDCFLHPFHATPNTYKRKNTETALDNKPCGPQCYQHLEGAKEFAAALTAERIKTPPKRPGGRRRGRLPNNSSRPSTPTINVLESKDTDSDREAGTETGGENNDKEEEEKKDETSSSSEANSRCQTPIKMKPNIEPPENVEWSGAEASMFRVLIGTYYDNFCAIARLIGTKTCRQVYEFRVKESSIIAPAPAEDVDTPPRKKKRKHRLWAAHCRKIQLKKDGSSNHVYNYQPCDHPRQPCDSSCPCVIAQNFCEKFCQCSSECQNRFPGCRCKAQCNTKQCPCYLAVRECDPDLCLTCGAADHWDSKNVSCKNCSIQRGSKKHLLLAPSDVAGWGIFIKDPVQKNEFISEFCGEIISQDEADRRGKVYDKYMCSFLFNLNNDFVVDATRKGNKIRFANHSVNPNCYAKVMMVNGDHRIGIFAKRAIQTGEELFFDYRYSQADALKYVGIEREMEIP
Sequence of Mutant type EZH2(Y641F) (O75530 whole entry partner): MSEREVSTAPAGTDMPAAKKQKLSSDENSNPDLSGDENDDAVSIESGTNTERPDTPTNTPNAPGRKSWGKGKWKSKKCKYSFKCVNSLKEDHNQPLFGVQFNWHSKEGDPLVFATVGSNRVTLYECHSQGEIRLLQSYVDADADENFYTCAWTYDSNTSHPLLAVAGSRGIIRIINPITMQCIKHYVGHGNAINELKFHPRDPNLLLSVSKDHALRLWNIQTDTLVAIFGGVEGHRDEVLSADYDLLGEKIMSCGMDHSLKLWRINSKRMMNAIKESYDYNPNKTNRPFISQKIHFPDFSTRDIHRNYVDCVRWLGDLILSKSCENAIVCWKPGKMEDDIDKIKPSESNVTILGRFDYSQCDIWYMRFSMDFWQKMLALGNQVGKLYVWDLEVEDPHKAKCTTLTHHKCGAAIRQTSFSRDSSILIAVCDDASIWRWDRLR
Sequence of Mutant type EZH2(Y641F) (Q15022 whole entry partner): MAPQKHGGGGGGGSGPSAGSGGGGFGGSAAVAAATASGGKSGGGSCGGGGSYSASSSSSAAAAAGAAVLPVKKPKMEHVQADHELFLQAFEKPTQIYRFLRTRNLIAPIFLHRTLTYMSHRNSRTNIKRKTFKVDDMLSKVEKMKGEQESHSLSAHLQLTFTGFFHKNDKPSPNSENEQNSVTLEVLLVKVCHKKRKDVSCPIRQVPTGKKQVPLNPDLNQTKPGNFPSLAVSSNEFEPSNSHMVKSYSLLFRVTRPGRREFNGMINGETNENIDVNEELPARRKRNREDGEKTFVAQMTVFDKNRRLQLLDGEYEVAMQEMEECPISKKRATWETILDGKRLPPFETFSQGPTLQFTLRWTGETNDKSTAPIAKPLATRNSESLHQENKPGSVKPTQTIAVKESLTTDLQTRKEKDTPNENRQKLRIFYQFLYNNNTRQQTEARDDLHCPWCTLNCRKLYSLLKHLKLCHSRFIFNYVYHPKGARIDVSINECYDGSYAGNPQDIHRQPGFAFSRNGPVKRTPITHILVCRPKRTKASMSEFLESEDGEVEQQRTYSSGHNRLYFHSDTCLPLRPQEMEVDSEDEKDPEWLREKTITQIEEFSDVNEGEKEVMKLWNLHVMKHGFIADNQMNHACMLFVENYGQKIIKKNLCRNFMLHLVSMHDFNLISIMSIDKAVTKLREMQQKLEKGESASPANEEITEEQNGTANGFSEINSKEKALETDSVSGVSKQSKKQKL
Sequence of Mutant type EZH2(Y641F) (Q09028 whole entry partner): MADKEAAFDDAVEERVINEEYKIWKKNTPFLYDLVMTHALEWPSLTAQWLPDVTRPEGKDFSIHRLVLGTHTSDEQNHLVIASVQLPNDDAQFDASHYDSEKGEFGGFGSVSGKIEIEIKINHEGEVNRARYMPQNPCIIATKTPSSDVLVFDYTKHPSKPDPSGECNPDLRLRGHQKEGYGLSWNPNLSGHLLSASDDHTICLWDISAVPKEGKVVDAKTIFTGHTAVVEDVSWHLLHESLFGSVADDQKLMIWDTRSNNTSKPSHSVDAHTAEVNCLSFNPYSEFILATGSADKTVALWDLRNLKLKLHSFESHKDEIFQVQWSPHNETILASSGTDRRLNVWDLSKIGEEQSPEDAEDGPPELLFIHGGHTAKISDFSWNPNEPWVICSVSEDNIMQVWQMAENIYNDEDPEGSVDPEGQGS
Sequence of Mutant type EZH2(Y641F) (Q6ZN18 whole entry partner): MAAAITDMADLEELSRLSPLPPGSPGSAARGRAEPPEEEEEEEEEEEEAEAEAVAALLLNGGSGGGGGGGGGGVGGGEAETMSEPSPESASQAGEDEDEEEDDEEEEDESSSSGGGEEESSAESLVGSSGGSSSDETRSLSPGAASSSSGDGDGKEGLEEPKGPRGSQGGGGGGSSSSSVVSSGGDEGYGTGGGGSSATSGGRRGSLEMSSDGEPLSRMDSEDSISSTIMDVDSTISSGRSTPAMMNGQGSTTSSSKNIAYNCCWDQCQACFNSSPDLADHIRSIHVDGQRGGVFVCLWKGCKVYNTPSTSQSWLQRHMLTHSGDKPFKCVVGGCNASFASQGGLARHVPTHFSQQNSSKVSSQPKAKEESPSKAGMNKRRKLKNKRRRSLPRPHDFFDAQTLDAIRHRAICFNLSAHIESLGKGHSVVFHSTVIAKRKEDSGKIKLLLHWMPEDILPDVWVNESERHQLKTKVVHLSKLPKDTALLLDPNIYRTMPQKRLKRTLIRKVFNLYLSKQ

wild-type EZH2 = wild-type EZH2 (Homo sapiens (Human), UniProt Q15910); assay: radiometric assay, activity to wild-type EZH2 of PRC2
Sequence of wild-type EZH2 (Q15910 whole entry): as the sequence (Q15910 whole entry Y641F) above, with F641Y counted along it
Sequence of wild-type EZH2 (O75530 whole entry partner): as the sequence (O75530 whole entry partner) above
Sequence of wild-type EZH2 (Q15022 whole entry partner): as the sequence (Q15022 whole entry partner) above
Experimental: 25 μL of reaction solution was transferred to a scintillation plate, which was incubated at room temperature for 1 hour (h) and washed with deionized water and 0.1% Tween 20 for three times. A PerkinElmer liquid scintillation/luminescence counter was used to read the value, and GraphPad Prism 5 was used to calculate the median inhibitory concentration (IC50) of the compounds.

Mutant type EZH2(A677G) = Mutant type EZH2(A677G) (Homo sapiens (Human), UniProt Q15910, A677G); assay: AlphaLISA, mutant type PRC2 complex EZH2(A677G); type: biochemical
Sequence of Mutant type EZH2(A677G) (Q15910 whole entry A677G): as the sequence (Q15910 whole entry Y641F) above, with F641Y, A677G counted along it
Sequence of Mutant type EZH2(A677G) (O75530 whole entry partner): as the sequence (O75530 whole entry partner) above
Sequence of Mutant type EZH2(A677G) (Q15022 whole entry partner): as the sequence (Q15022 whole entry partner) above
Sequence of Mutant type EZH2(A677G) (Q09028 whole entry partner): as the sequence (Q09028 whole entry partner) above
Sequence of Mutant type EZH2(A677G) (Q6ZN18 whole entry partner): as the sequence (Q6ZN18 whole entry partner) above

Mutant type EZH2(Y641N) = Mutant type EZH2(Y641N) (Homo sapiens (Human), UniProt Q15910, Y641N); assay: AlphaLISA, mutant type PRC2 complex EZH2(Y641N); type: biochemical; conditions: read-out: Mutant type EZH2(Y641N) IC50 Nanomoles per Liter
Sequence of Mutant type EZH2(Y641N) (Q15910 whole entry Y641N): as the sequence (Q15910 whole entry Y641F) above, with F641N counted along it
Sequence of Mutant type EZH2(Y641N) (O75530 whole entry partner): as the sequence (O75530 whole entry partner) above
Sequence of Mutant type EZH2(Y641N) (Q15022 whole entry partner): as the sequence (Q15022 whole entry partner) above
Sequence of Mutant type EZH2(Y641N) (Q09028 whole entry partner): as the sequence (Q09028 whole entry partner) above
Sequence of Mutant type EZH2(Y641N) (Q6ZN18 whole entry partner): as the sequence (Q6ZN18 whole entry partner) above

[1] = Pharmacokinetic experiment in rats; type: in vivo, SD rats
Experimental: A certain amount of compound was weighted and dissolved in 0.1% Tween under vortex and ultrasound, and 0.5% carboxymethyl cellulose sodium (CMC-NA) solution was added to form a uniform solution.

[2] = system: human diffuse large B-cell lymphoma cells (Karpas 422 cell); assay: Karpas 422 cell proliferation, Calcein AM staining; type: cell-based; conditions: for pIC50: data of 14th day, read-out: Karpas422 Proliferation IC50 Nanomoles per Liter; for IC50: KARPAS-422, read-out: Karpas422 Proliferation IC50 Nanomoles per Liter (nM)
[3] = system: human diffuse large cell lymphoma B lymphocytes (Pfeiffer cell); assay: Pfeiffer cell proliferation, Calcein AM staining; type: cell-based; conditions: for pIC50: data of 14th day, read-out: Pfeiffer Proliferation IC50 Nanomoles per Liter; for IC50: read-out: Pfeiffer Proliferation IC50 Nanomoles per Liter (nM)
Source text: The diffuse large cell lymphoma B lymphocytes (Pfeiffer cells) were collected and counted when growing well.

[4] = read-out: Mutant type EZH2(A677G) IC59 Nanomoles per Liter
[5] = read-out: Wild-type EZH2 IC50 Nanomoles per Liter
[6] = male, SD, rat, in vivo, iv, 4 mg/kg
[7] = male, SD, rat, in vivo, po, 20 mg/kg

Structure (SMILES)	pIC50 (Mutant type EZH2(Y641F))	pIC50 (wild-type EZH2)	pIC50 (Mutant type EZH2(A677G); [4])	pIC50 (Mutant type EZH2(Y641N))	pIC50 ([2]; Homo sapiens, KARPAS-422)	pIC50 ([3]; Homo sapiens, Pfeiffer)	pIC50 (wild-type EZH2; [5])	IC50 (Mutant type EZH2(A677G); [4]) [nM]	also measured
CCN(c1cc(-c2ccc3c(c2)N(C(C)C(C)C)CC32CCOCC2)c(Cl)c(C(=O)NCc2c(C)cc(C)[nH]c2=O)c1C)C1CCOCC1 (stereo not shown) [Example 55, 2-chloro-N-((4,6-dimethyl-2-oxo-1,2-dihydropyridin-3-yl)methyl)-5-(ethyl(tetrahydro-2H-pyran-4-yl)amino)-6-methyl-3-(1-(3-methylbutyl-2-yl)-2′,3′,5′,6′-tetrahydrospiro[dihydroindole-3,4′-pyran]-6-yl)benzamide]	9.24	9.20	9.38	9.52	9.01	9.19	–	–	AUC ([1]; male, SD, rat, plasma, rats, Intravenous-Dose 4 mg/kg, read-out: Area Curve (AUC, ng/mL · h)): 933 ng·h/mL; half-life ([1]; male, SD, rat, plasma; rats, Intravenous-Dose 4 mg/kg; read-out: Half life T1/2, h) (converted)): 1.53 h; AUC ([1]; male, SD, rat, plasma, rats, Oral-Dose 20 mg/kg, read-out: Area Curve (AUC, ng/mL · h)): 1270 ng·h/mL; Cmax ([1]; male, SD, rat, plasma, rats, Oral-Dose 20 mg/kg, read-out: Blood Drug level (Cmax, ng/mL)): 438 ng/mL; bioavailability ([1]; male, SD, rat, plasma, rats, oral 20 mg/kg vs intravenous 4 mg/kg, read-out: Bioavailability (P %)): 27.1%
CCN(c1cc(-c2ccc3c(c2)NC(=O)C32CCN(C3COC3)CC2)cc(C(=O)NCc2c(C)cc(C)[nH]c2=O)c1C)C1CCOCC1 [Example 84, N-((4,6-dimethyl-2-oxo-1,2-dihydropyridin-3-yl)methyl)-3-(ethyl(tetrahydro-2H-pyran-4-yl)amino)-2-methyl-5-(1′-(oxetan-3-yl)-2-oxospiro[dihydroindole-3,4′-piperidine]-6-yl)benzamide]	9.20	–	9.33	9.60	8.73	8.76	8.67	–	AUC [1, 6]: 933 ng·h/mL; half-life [1, 6]: 1.38 h; AUC [1, 7]: 1190 ng·h/mL; Cmax [1, 7]: 501 ng/mL; bioavailability [1, 7]: 25.4%
CCN(c1cc(-c2ccc3c(c2)NC(=O)C32CCN(C(C)=O)CC2)cc(C(=O)NCc2c(C)cc(C)[nH]c2=O)c1C)C1CCOCC1 [Example 88]	9.21	9.02	9.29	9.38	8.56	8.81	–	–	–
CCN(c1cc(-c2ccc3c(c2)NC(=O)C32CCC(F)(F)CC2)cc(C(=O)NCc2c(C)cc(C)[nH]c2=O)c1C)C1CCOCC1 [Example 91, 5-(4,4-difluoro-2′-oxospiro[cyclohexane-1,3′-dihydroindole]-6′-yl)-N-((4,6-dimethyl-2-oxo-1,2-dihydropyridin-3-yl)methyl)-3-(ethyl(tetrahydro-2H-pyran-4-yl)amino)-2-methylbenzamide]	9.31	–	9.15	9.62	8.73	8.97	9.02	–	–
CCN(c1cc(-c2ccc3c(c2)NC(=O)C32CCC(=O)CC2)cc(C(=O)NCc2c(C)cc(C)[nH]c2=O)c1C)C1CCOCC1 [Example 92, N-((4,6-Dimethyl-2-oxo-1,2-dihydropyridin-3-yl)methyl)-5-(2′,4-dioxospiro[cyclohexane-1,3′-dihydroindole]-6′-yl)-3-(ethyl(tetrahydro-2H-pyran-4-yl)amino)-2-methylbenzamide]	9.17	–	9.24	9.43	8.55	8.74	9.06	–	–
CCN(c1cc(-c2ccc3c(c2)NC(=O)C32CCC(O)CC2)cc(C(=O)NCc2c(C)cc(C)[nH]c2=O)c1C)C1CCOCC1 (stereo not shown) [Example 94, N-((4,6-dimethyl-2-oxo-1,2-dihydropyridin-3-yl)methyl)-3-(ethyl(tetrahydro-2H-pyran-4-yl)amino)-5-(4-hydroxy-2′-oxospiro[cyclohexane-1,3′-dihydroindole]-6′-yl)-2-methylbenzamide]	9.14	–	9.11	9.21	8.32	8.42	8.88	–	–
CCN(c1cc(-c2ccc3c(c2)NC(=O)C32CCNCC2)cc(C(=O)NCc2c(C)cc(C)[nH]c2=O)c1C)C1CCSCC1 [Example 97, N-((4,6-Dimethyl-2-oxo-1,2-dihydropyridin-3-yl)methyl)-3-(ethyl(tetrahydro-2H-thiapyran-4-yl)amino)-2-methyl-5-(2-oxospiro[dihydroindole-3,4′-piperidine]-6-yl)benzamide]	9.23	–	9.42	9.43	8.57	8.82	9.07	–	–
CCN(c1cc(-c2ccc3c(c2)NC(=O)C32CCOCC2)cc(C(=O)NCc2c(OC)cc(C)[nH]c2=O)c1C)C1CCC(N(C)C)CC1 (stereo not shown) [Example 100]	9.10	8.98	9.11	9.38	8.55	8.56	–	–	–
CCN(c1cc(-c2cnc3c(c2)NC(=O)C32CCOCC2)cc(C(=O)NCc2c(C)cc(C)[nH]c2=O)c1C)C1CCOCC1 [Example 101, N-((4,6-Dimethyl-2-oxo-1,2-dihydropyridin-3-yl)methyl)-3-(ethyl(tetrahydro-2H-pyran-4-yl)amino)-2-methyl-5-(2′-oxo-1′,2,2′,3,5,6-hexahydrospiro[pyran-4,3′-pyrrolo[3,2-b]pyridine]-6′-yl)benzamide]	9.02	–	9.09	9.24	8.43	8.56	8.94	–	–
CCN(c1cc(-c2ccc3c(c2)NC(=O)C32CCOCC2)cc(C(=O)NCc2c(C)cc(C)[nH]c2=O)c1C)C1CCOCC1OC (stereo not shown) [Example 102, N-((4,6-Dimethyl-2-oxo-1,2-dihydropyridin-3-yl)methyl)-3-((ethyl)(3-methoxytetrahydro-2H-pyran-4-yl)amino)-2-methyl-5-(2-oxo-2′,3′,5′,6′-tetrahydrospiro[dihydroindole-3,4′-pyran]-6-yl)benzamide]	9.05	–	9.14	9.35	8.41	8.46	9.02	–	–
CCN(c1cc(-c2ccc3c(c2)C2(CC=C(F)CC2)C(=O)N3)cc(C(=O)NCc2c(C)cc(C)[nH]c2=O)c1C)C1CCOCC1 (stereo not shown) [Example 118, N-((4,6-dimethyl-2-carbonyl-1,2-dihydropyridin-3-yl)methyl)-3-(ethyl(tetrahydro-2H-pyran-4-yl)amino)-5-(4-fluoro-2′-carbonylspiro[cyclohexano-1,3′-dihydroindole]-3-ene-5′-yl)-2-methylbenzamide]	9.24	9.04	–	9.49	–	–	–	–	pIC50 (Mutant type EZH2(A677G)): 9.35; IC50 ([2]; Homo sapiens): 1.68 nM; IC50 ([3]; Homo sapiens, Pfeiffer): 1.05 nM
CCN(c1cc(-c2ccc3c(c2)C2(CCC(F)CC2)C(=O)N3)cc(C(=O)NCc2c(C)cc(C)[nH]c2=O)c1C)C1CCOCC1 (stereo not shown) [Example 119, 5-(4-Fluoro-2′-carbonylspiro[cyclohexano-1,3′-dihydroindole]-5′-yl)-N-((4,6-dimethyl-2-carbonyl-1,2-dihydropyridin-3-yl)methyl)-3-(ethyl(tetrahydro-2H-pyran-4-yl)amino)-2-methylbenzamide]	9.02	9.01	–	9.20	–	–	–	–	pIC50 (Mutant type EZH2(A677G)): 9.12; IC50 ([2]; Homo sapiens): 4.15 nM; IC50 ([3]; Homo sapiens, Pfeiffer): 3.52 nM
CCN(c1cc(-c2ccc3c(c2)NC(=O)C32CCOCC2)cc(C(=O)NCc2c(OC)cc(C)[nH]c2=O)c1C)C1CCC(N(C)CCOC)CC1 (stereo not shown) [Example 120, 3-(Ethyl(4-((2-methoxyethyl)(methyl)amino)cyclohexyl)amino)-N-((4-methoxy-6-methyl-2-oxo-1,2-dihydropyridin-3-yl)methyl)-2-methyl-5-(2-oxo-2′,3′,5′,6′-tetrahydrospiro[dihydroindole-3,4′-pyran]-6-yl)benzamide]	9.17	–	9.28	9.32	8.35	8.53	8.90	–	–
CCN(c1cc(-c2ccc3c(c2)NC(=O)C32CCOCC2)cc(C(=O)NCc2c(C)cc(C)[nH]c2=O)c1C)C1CCC(N(C)C2COC2)CC1 (stereo not shown) [Example 121, N-((4,6-dimethyl-2-oxo-1,2-dihydropyridin-3-yl)methyl)-3-(ethyl(4-(methyl(oxetan-3-yl)amino)cyclohexyl)amino)-2-methyl-5-(2-oxo-2′,3′,5′,6′-tetrahydrospiro[dihydroindole-3,4′-pyran]-6-yl)benzamide]	9.13	–	9.17	9.28	8.45	8.63	8.98	–	–
CCN(c1cc(-c2ccc3c(c2)C2(CCOCC2)C(=O)N3C)cc(C(=O)NCc2c(OC)cc(C)[nH]c2=O)c1C)C1CCN(CC(F)(F)F)CC1 [Example 123, 3-(Ethyl(1-(2,2,2-trifluoroethyl)piperidin-4-yl)amino)-N-((4-methoxy-6-methyl-2-oxo-1,2-dihydropyridin-3-yl)methyl)-2-methyl-5-(1-methyl-2-oxo-2′,3′,5′,6′-tetrahydrospiro[dihydroindole-3,4′-pyran]-5-yl)benzamide]	9.04	–	–	9.28	–	–	8.94	0.72	pIC50 [2]: 8.49; pIC50 [3]: 8.55
